Paper PMC7586344, “Discovery of Novel pERK1/2- or β-Arrestin-Preferring 5-HT1A Receptor-Biased Agonists: Diversified Therapeutic-like versus Side Effect Profile” (Journal of Medicinal Chemistry, 2020)

Experiments:
Test in all cases: Off-target binding screen
CB2 = biological target: T1, CB2 (Homo sapiens, UniProt P34972); settings: 1000 nM, read-out: % Inhibition of Control Specific Binding
T1 construct: Eurofins Pharma Discovery Services (contract assay)

5-HT3 = biological target: T2, 5-HT3 (Homo sapiens, UniProt P46098); settings: 1000 nM, read-out: % Inhibition of Control Specific Binding
T2 construct: Eurofins Pharma Discovery Services (contract screen)
T2 sequence (P46098 24-478): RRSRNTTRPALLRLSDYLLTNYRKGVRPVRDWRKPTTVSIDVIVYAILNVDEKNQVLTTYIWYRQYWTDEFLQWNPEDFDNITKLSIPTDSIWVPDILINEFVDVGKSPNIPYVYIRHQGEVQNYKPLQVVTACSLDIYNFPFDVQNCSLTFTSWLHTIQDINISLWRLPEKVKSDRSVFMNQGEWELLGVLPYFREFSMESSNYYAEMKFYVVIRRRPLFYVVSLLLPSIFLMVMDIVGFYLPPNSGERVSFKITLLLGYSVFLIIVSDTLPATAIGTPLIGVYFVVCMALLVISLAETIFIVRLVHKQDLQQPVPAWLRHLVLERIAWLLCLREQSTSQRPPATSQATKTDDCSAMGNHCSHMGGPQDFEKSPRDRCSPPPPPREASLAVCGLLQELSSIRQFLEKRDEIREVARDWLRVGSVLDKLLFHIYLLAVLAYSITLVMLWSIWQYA

κ (KOR) = biological target: T3, κ (KOR) (Homo sapiens, UniProt P41145); settings: 1000 nM, read-out: % Inhibition of Control Specific Binding
T3 construct: Eurofins Pharma Discovery Services (contract assay)

GABAA1 (α1,β2,γ2) = biological target: T4, GABAA1 (α1,β2,γ2) (Homo sapiens, UniProt P14867+P18507+P47870); settings: 1000 nM, read-out: % Inhibition of Control Specific Binding
T4 construct: Eurofins Pharma Discovery Services (contract assay)

CB1 = biological target: T5, CB1 (Homo sapiens, UniProt P21554); settings: 1000 nM, read-out: % Inhibition of Control Specific Binding
T5 construct: Eurofins Pharma Discovery Services (contract assay)

H3 = biological target: T6, H3 (Homo sapiens, UniProt Q9Y5N1); settings: 1000 nM, read-out: % Inhibition of Control Specific Binding
T6 construct: Eurofins Pharma Discovery Services (contract assay)

5-HT2C = biological target: T7, 5-HT2C (Homo sapiens, UniProt P28335); settings: 1000 nM, read-out: % Inhibition of Control Specific Binding
T7 construct: Eurofins Pharma Discovery Services (contract screen)
T7 sequence (P28335 33-458): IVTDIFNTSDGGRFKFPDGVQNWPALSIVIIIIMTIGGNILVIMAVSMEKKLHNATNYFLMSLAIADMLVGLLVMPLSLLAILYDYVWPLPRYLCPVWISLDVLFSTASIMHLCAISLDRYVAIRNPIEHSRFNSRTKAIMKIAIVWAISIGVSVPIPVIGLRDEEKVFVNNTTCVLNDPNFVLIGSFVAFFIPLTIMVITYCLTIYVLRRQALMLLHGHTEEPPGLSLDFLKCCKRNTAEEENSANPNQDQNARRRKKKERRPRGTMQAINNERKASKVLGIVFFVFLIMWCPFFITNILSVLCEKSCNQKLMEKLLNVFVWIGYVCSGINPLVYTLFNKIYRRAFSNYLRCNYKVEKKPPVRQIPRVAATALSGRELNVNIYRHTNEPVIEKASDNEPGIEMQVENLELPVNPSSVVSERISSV

H4 = biological target: T8, H4 (Homo sapiens, UniProt Q9H3N8); settings: 1000 nM, read-out: % Inhibition of Control Specific Binding
T8 construct: Eurofins Pharma Discovery Services (contract assay)

D4.4 = biological target: T9, D4.4 (Homo sapiens, UniProt P21917); settings: read-out: % Inhibition of Control Specific Binding; for inhibition at 0.001 µM: 1 nM; for inhibition at 0.01 µM: 10 nM; for inhibition at 0.1 µM: 100 nM; for inhibition at 1 µM: 1000 nM
T9 construct: Eurofins Pharma Discovery Services (contract assay)
T9 sequence (P21917 1-419): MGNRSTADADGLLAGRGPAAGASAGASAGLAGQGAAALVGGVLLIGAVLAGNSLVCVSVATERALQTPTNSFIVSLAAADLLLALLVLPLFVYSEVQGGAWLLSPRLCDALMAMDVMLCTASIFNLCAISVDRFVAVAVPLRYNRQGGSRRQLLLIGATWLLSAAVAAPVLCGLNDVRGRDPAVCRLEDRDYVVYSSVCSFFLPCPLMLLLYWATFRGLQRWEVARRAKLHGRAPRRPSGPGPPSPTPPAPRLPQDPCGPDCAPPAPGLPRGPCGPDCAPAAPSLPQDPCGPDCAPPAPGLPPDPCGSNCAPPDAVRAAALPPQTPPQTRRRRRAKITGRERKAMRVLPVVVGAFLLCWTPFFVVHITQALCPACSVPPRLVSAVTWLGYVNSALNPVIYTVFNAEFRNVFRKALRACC

µ (MOR) = biological target: T10, µ (MOR) (Homo sapiens, UniProt P35372); settings: read-out: % Inhibition of Control Specific Binding; for inhibition at 1 µM: 1000 nM
T10 construct: Eurofins Pharma Discovery Services (contract assay)

α2C = biological target: T11, α2C (Homo sapiens, UniProt P18825); settings: read-out: % Inhibition of Control Specific Binding; for inhibition at 0.001 µM: 1 nM; for inhibition at 0.01 µM: 10 nM; for inhibition at 0.1 µM: 100 nM; for inhibition at 1 µM: 1000 nM
T11 construct: Eurofins Pharma Discovery Services (contract screen)
T11 sequence (P18825 1-462): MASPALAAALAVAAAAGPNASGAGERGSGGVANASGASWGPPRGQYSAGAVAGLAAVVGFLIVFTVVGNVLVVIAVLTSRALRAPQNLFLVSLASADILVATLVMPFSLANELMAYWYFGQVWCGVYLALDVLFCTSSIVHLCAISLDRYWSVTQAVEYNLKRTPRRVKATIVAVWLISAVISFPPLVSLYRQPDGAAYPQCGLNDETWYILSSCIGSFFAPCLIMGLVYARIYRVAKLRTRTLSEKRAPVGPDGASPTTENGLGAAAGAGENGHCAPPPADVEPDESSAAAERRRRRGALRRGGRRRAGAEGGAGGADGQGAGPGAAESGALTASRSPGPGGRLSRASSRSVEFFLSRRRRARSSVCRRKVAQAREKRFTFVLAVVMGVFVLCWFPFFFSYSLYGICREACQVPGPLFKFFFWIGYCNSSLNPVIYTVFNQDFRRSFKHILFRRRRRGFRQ

BZD (peripheral) = settings: 1000 nM
H2 = biological target: T12, H2 (Homo sapiens, UniProt P25021); settings: 1000 nM, read-out: % Inhibition of Control Specific Binding
T12 construct: Eurofins Pharma Discovery Services (contract assay)

σ2 = biological target: T13, σ2 (Homo sapiens, UniProt Q5BJF2); settings: read-out: % Inhibition of Control Specific Binding; for inhibition at 0.01 µM: 10 nM; for inhibition at 0.1 µM: 100 nM; for inhibition at 1 µM: 1000 nM
T13 construct: Eurofins Pharma Discovery Services (contract assay)
T13 sequence (Q5BJF2 whole entry): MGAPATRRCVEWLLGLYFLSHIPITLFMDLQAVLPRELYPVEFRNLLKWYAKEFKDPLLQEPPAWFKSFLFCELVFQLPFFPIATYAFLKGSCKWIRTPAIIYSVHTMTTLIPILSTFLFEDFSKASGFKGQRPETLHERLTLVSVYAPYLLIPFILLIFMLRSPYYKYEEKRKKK

T8 sequence (Q9H3N8 whole entry): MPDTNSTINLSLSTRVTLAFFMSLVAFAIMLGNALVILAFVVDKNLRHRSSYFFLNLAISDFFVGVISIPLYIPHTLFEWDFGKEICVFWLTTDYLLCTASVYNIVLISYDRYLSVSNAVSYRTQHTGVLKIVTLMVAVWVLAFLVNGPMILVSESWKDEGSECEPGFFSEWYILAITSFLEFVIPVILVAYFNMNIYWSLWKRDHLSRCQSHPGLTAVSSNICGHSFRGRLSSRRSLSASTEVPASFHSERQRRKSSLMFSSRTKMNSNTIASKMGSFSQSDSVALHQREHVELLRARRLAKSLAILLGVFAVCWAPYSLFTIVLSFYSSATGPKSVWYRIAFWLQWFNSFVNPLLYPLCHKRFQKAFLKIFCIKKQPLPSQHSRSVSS
T5 sequence (P21554 whole entry, species assumed): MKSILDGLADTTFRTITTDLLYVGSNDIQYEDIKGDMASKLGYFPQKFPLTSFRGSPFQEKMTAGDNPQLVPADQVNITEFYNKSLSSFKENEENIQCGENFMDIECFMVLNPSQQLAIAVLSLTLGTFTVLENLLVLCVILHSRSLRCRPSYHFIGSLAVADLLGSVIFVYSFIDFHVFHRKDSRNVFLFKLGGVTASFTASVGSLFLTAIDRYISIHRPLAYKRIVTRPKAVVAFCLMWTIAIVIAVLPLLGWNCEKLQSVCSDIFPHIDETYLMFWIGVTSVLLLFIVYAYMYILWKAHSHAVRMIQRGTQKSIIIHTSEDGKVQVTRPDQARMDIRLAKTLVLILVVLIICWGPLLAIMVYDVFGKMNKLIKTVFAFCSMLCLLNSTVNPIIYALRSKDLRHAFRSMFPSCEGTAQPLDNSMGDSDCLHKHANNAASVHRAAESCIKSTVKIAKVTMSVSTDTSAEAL
T6 sequence (Q9Y5N1 whole entry): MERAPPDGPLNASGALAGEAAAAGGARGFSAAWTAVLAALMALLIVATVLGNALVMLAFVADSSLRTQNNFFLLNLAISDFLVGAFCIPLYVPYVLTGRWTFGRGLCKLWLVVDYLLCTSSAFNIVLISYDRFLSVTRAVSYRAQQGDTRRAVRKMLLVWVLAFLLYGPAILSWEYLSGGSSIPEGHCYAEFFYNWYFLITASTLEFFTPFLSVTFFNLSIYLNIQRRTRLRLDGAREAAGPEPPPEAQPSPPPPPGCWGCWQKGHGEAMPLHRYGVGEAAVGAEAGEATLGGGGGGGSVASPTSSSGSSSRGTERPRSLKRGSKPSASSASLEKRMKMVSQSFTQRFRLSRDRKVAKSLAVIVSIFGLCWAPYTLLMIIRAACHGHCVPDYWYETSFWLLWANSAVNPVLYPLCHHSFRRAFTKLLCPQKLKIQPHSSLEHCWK
T3 sequence (P41145 whole entry): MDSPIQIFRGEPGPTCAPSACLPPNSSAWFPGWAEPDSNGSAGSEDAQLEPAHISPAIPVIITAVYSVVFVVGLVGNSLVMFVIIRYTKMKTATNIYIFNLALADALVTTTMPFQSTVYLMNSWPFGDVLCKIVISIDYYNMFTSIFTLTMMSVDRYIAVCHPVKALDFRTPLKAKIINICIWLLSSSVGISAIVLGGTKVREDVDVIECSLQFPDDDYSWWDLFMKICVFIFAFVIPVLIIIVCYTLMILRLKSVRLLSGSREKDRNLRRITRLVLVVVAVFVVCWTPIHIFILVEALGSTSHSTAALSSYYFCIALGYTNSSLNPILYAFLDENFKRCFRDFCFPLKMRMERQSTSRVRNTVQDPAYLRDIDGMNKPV
T12 sequence (P25021 whole entry): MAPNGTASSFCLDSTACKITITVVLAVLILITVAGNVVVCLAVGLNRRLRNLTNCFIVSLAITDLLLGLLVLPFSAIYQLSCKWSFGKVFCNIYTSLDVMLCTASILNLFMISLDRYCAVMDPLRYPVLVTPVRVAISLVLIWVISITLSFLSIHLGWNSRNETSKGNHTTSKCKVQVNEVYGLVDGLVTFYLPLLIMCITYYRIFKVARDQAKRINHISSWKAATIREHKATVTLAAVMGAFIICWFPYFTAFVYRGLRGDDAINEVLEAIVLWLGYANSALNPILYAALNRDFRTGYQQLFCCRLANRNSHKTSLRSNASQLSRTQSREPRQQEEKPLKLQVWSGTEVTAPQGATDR
T1 sequence (P34972 whole entry, species assumed): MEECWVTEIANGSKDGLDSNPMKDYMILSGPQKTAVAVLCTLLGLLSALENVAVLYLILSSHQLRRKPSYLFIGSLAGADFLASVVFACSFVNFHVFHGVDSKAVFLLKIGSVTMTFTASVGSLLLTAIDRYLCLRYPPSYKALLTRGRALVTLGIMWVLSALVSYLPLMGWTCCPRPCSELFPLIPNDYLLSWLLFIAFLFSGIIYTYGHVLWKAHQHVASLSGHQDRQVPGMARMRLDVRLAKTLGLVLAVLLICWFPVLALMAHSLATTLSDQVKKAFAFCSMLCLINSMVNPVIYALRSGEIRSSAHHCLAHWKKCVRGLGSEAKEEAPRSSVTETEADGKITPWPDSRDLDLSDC
T10 sequence (P35372 whole entry): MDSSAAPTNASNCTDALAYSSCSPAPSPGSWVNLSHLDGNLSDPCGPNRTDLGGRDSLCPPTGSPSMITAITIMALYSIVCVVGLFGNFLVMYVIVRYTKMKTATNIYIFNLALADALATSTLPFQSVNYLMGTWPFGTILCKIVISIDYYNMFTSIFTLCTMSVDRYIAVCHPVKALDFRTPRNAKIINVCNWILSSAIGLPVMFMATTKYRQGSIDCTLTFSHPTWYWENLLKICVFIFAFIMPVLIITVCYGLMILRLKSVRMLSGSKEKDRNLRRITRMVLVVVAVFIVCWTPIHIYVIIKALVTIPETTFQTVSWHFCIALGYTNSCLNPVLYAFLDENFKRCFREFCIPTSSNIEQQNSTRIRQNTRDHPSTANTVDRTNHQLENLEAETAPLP
T4 sequence (P14867 28-456): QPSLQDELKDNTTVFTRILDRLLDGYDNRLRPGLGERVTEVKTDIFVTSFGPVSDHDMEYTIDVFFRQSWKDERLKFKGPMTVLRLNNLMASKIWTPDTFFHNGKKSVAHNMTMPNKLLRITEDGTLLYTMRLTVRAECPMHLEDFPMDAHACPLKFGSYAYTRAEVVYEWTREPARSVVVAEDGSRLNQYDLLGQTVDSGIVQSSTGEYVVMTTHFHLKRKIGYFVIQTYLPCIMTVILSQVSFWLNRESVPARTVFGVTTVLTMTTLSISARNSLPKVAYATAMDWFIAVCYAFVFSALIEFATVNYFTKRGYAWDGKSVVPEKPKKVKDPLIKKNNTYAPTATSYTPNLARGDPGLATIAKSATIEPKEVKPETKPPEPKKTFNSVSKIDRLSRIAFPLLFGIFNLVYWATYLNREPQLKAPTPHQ
T4 sequence (P47870 25-512 limits assumed): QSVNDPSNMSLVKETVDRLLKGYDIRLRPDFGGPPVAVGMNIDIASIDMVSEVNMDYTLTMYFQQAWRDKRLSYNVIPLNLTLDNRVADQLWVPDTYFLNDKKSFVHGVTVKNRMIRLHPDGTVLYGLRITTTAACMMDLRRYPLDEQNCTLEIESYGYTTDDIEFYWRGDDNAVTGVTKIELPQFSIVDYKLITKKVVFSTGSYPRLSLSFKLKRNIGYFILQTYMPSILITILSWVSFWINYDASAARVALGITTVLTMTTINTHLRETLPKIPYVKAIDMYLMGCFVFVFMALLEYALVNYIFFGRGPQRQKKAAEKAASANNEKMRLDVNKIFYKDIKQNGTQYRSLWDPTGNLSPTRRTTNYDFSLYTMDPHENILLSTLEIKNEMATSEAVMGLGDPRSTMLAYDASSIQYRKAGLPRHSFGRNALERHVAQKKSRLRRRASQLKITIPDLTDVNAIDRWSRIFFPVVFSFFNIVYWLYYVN
T4 sequence (P18507 40-475): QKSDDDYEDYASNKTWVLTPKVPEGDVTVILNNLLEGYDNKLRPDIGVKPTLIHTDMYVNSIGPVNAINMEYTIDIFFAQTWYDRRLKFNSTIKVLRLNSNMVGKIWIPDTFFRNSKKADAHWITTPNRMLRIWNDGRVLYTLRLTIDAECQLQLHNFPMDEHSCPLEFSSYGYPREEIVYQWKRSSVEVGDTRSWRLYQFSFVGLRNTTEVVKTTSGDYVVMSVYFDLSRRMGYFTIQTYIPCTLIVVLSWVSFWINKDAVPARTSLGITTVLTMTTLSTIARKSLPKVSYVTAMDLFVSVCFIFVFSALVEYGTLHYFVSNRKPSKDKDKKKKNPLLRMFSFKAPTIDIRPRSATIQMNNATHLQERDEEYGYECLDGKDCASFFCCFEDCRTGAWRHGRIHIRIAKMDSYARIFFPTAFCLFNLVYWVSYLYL

SMILES | inhibition at 1 µM (CB2) [%] | inhibition at 1 µM (5-HT3) [%] | inhibition at 1 µM (κ (KOR)) [%] | inhibition at 1 µM (GABAA1 (α1,β2,γ2)) [%] | inhibition at 1 µM (CB1) [%] | inhibition at 1 µM (H3) [%] | inhibition at 1 µM (5-HT2C) [%] | inhibition at 1 µM (H4) [%] | inhibition at 0.001 µM (D4.4) [%] | inhibition at 0.01 µM (D4.4) [%] | inhibition at 0.1 µM (D4.4) [%] | inhibition at 1 µM (D4.4) [%] | inhibition at 1 µM (µ (MOR)) [%] | inhibition at 0.001 µM (α2C) [%] | inhibition at 0.01 µM (α2C) [%] | % Inhibition of Control Specific Binding (BZD (peripheral)) [%] | inhibition at 1 µM (H2) [%] | inhibition at 0.01 µM (σ2) [%] | inhibition at 0.1 µM (σ2) [%] | inhibition at 1 µM (σ2) [%] | other results
O=C(c1ccc(F)c(Cl)c1)N1CCC(F)(CNCCOc2cccc3[nH]ccc23)CC1 [Compound 56, (4-(((2-((1H-Indol-4-yl)oxy)ethyl)amino)methyl)-4-fluoropiperidin-1-yl)(3-chloro-4-fluorophenyl)methanone] | 1 | -10 | 6 | -13 | -15 | -17 | 6 | 5 | 9 | 48 | 89 | 98 | 88 | 3 | 18 | -1.0 | -33 | -1 | 31 | 63 | inhibition at 0.01 µM (µ (MOR); 10 nM): 10%; inhibition at 0.1 µM (µ (MOR); 100 nM): 58%; inhibition at 0.1 µM (α2C): 74%
O=C(c1ccc(F)c(Cl)c1)N1CCC(F)(CNCCOc2ccccc2)CC1 [Compound 3] | 4 | -4 | 4 | -18 | -9 | -14 | -15 | -11 | -1 | 8 | 59 | 92 | 26 | 1 | 18 | -1.0 | -15 | 11 | 33 | 82 | inhibition at 0.1 µM (α2C): 66%; inhibition at 1 µM (α2C): 92%
CNc1ccccc1OCCNCC1(F)CCN(C(=O)c2ccc(F)c(Cl)c2)CC1 [Compound 44, (3-Chloro-4-fluorophenyl)(4-fluoro-4-(((2-(2-(methylamino)phenoxy)ethyl)amino)methyl)piperidin-1-yl)methanone] | -5 | -11 | -2 | -4 | 3 | -13 | -9 | -11 |  |  | 51 | 90 | 22 |  |  | -5.0 | -28 | 2 | 10 | 52 | inhibition at 1 µM (α2C): 32%
